Test results reported in the CheMixHub viscosity set.

Experiment: xn = mol fraction of the nth substance listed
Conditions: 101 kPa

OCCCOCCCO + NCCN
viscosity [mPa·s]
Conditions | 293.15 K | 298.15 K | 303.15 K | 308.15 K | 313.15 K | 318.15 K
x1 = 0.023 | 1.77 | 1.59 | 1.34 | 1.21 | 1.09 | 0.991
x1 = 0.0474 | 2.1 | 1.86 | 1.55 | 1.4 | 1.24 | 1.13
x1 = 0.0733 | 2.51 | 2.19 | 1.81 | 1.62 | 1.44 | 1.3
x1 = 0.1007 | 3.07 | 2.66 | 2.16 | 1.92 | 1.71 | 1.53
x1 = 0.1299 | 3.75 | 3.23 | 2.59 | 2.28 | 2 | 1.79
x1 = 0.1611 | 4.7 | 4.01 | 3.16 | 2.76 | 2.43 | –
x1 = 0.1943 | 5.97 | 4.99 | 3.9 | 3.34 | 2.88 | –
x1 = 0.23 | 7.72 | 6.39 | 4.91 | 4.16 | 3.55 | –
x1 = 0.2682 | 10.2 | 8.28 | 6.24 | 5.22 | 4.37 | –
x1 = 0.3094 | 13.7 | 10.9 | 8.09 | 6.65 | 5.56 | –
x1 = 0.3538 | 18.7 | 14.7 | 10.7 | 8.62 | 7 | –
x1 = 0.4019 | 25.9 | 19.8 | 14.1 | 11.1 | 8.87 | –
x1 = 0.4541 | 36.7 | 26.7 | 18.6 | 14.4 | 11.2 | –
x1 = 0.5111 | 48.7 | 35.4 | 24.1 | 18.4 | 14.1 | –
x1 = 0.5734 | 63.9 | 45.7 | 30.6 | 22.9 | 17.4 | –
x1 = 0.6418 | 79.4 | 56.4 | 37.3 | 27.6 | 20.7 | –
x1 = 0.7174 | 93.8 | 66 | 43.3 | 31.9 | 23.7 | –
x1 = 0.8013 | 105 | 73.2 | 47.9 | 35.1 | 26 | –
x1 = 0.8949 | 112 | 77.9 | 50.6 | 36.8 | 27.3 | –
